Measurements published in PubChem BioAssay (NCI).
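Where inhibition never reached the appropriate level, the endpoint shown equals the highest concentration tested. Otherwise, values were interpolated linearly from a five-concentration, 48-hour dose response in 96-well plates. TGI marks complete inhibition of growth.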

Assays:
Assay in all cases: NCI anticancer screen, dose series, 48 h
[1] = system: NCI-H226 lung
[2] = system: DLD-1 colon
[3] = system: MOLT-4 leukemia
[4] = system: OVCAR-8 ovarian
[5] = system: COLO 205 colon
[6] = system: HT29 colon
[7] = system: CAKI-1 renal
[8] = system: SNB-78 CNS
[9] = system: SF-295 CNS
[10] = system: XF 498 CNS
[11] = system: M19-MEL melanoma
[12] = system: LOX IMVI melanoma
[13] = system: NCI-H23 lung
[14] = system: SW-620 colon
[15] = system: U251 CNS
[16] = system: SK-MEL-5 melanoma
[17] = system: K-562 leukemia
[18] = system: UACC-257 melanoma
[19] = system: MALME-3M melanoma
[20] = system: HCT-15 colon
[21] = system: HCT-116 colon
[22] = system: DMS 273 small cell lung
[23] = system: CCRF-CEM leukemia
[24] = system: OVCAR-4 ovarian
[25] = system: HOP-62 NSCLC
[26] = system: DMS 114 small cell lung
[27] = system: KM12 colon
[28] = system: 786-0 renal
[29] = system: A549 NSCLC
[30] = system: SNB-19 CNS
[31] = system: IGROV1 ovarian
[32] = system: OVCAR-3 ovarian
[33] = system: ACHN renal
[34] = system: UO-31 renal
[35] = system: HCC-2998 colon
[36] = system: OVCAR-5 ovarian
[37] = system: SNB-75 CNS
[38] = system: SF-268 CNS
[39] = system: NCI-H460 lung
[40] = system: RXF 393 renal
[41] = system: SK-MEL-28 melanoma
[42] = system: HL-60(TB) leukemia
[43] = system: M14 melanoma
[44] = system: TK-10 renal
[45] = system: NCI-H522 lung
[46] = system: SF-539 CNS
[47] = system: SR leukemia
[48] = system: UACC-62 melanoma
[49] = system: KM20L2 colon
[50] = system: HOP-92 NSCLC
[51] = system: LXFL 529 NSCLC
[52] = system: RPMI-8226 leukemia
[53] = system: SK-OV-3 ovarian
[54] = system: SN12C renal
[55] = system: EKVX NSCLC
[56] = system: A498 renal
[57] = system: HOP-18 NSCLC
[58] = system: SK-MEL-2 melanoma

## O=C(N/N=C(\C1=Nc2ccc(Cl)cc2NC1O)C(O)/C=C/c1ccccc1)c1ccncc1 (centres undefined)
[1]
  TGI: > 100 µM
[2]
  TGI: > 100 µM
[3]
  TGI: > 100 µM
[4]
  TGI: > 100 µM
[5]
  TGI: > 100 µM
[6]
  TGI: > 100 µM
[7]
  TGI: > 100 µM
[8]
  TGI: > 100 µM
[9]
  TGI: > 100 µM
[10]
  TGI: > 100 µM
[11]
  TGI: > 100 µM
[12]
  TGI: > 100 µM
[13]
  TGI: > 100 µM
[14]
  TGI: > 100 µM
[15]
  TGI: > 100 µM
[16]
  TGI: > 100 µM
[17]
  TGI: > 100 µM
[18]
  TGI: > 100 µM
[19]
  TGI: > 100 µM
[20]
  TGI: > 100 µM
[21]
  TGI: > 100 µM
[22]
  TGI: > 100 µM
[23]
  TGI: > 100 µM
[24]
  TGI: > 100 µM
[25]
  TGI: > 100 µM
[26]
  TGI: > 100 µM
[27]
  TGI: > 100 µM
[28]
  TGI: > 100 µM
[29]
  TGI: > 100 µM
[30]
  TGI: > 100 µM
[31]
  TGI: > 100 µM
[32]
  TGI: > 100 µM
[33]
  TGI: > 100 µM
[34]
  TGI: > 100 µM
[35]
  TGI: > 100 µM
[36]
  TGI: > 100 µM
[37]
  TGI: > 100 µM
[38]
  TGI: > 100 µM
[39]
  TGI: > 100 µM
[40]
  TGI: > 100 µM
[41]
  TGI: > 100 µM
[42]
  TGI: > 100 µM
[43]
  TGI: > 100 µM
[44]
  TGI: > 100 µM
[45]
  TGI: > 100 µM
[46]
  TGI: > 100 µM
[47]
  TGI: > 100 µM
[48]
  TGI: > 100 µM
[49]
  TGI: > 100 µM
[50]
  TGI: > 100 µM
[51]
  TGI: > 100 µM
[52]
  TGI: > 100 µM
[53]
  TGI: > 100 µM
[54]
  TGI: > 100 µM

## CC(N)CC(=O)O (centres undefined)
[1]
  TGI: > 5000 µM
[2]
  TGI: > 5000 µM
[3]
  TGI: > 5000 µM
[5]
  TGI: > 5000 µM
[6]
  TGI: > 5000 µM
[8]
  TGI: > 5000 µM
[9]
  TGI: > 5000 µM
[11]
  TGI: > 5000 µM
[13]
  TGI: > 5000 µM
[14]
  TGI: > 5000 µM
[55]
  TGI: > 5000 µM
[15]
  TGI: > 5000 µM
[56]
  TGI: > 5000 µM
[16]
  TGI: > 5000 µM
[17]
  TGI: > 5000 µM
[18]
  TGI: > 5000 µM
[57]
  TGI: > 5000 µM
[19]
  TGI: > 5000 µM
[20]
  TGI: > 5000 µM
[21]
  TGI: > 5000 µM
[22]
  TGI: > 5000 µM
[23]
  TGI: > 5000 µM
[24]
  TGI: > 5000 µM
[26]
  TGI: > 5000 µM
[27]
  TGI: > 5000 µM
[28]
  TGI: > 5000 µM
[29]
  TGI: > 5000 µM
[31]
  TGI: > 5000 µM
[32]
  TGI: > 5000 µM
[33]
  TGI: > 5000 µM
[34]
  TGI: > 5000 µM
[35]
  TGI: > 5000 µM
[36]
  TGI: > 5000 µM
[37]
  TGI: > 5000 µM
[38]
  TGI: > 5000 µM
[58]
  TGI: > 5000 µM
[39]
  TGI: > 5000 µM
[40]
  TGI: > 5000 µM
[41]
  TGI: > 5000 µM
[42]
  TGI: > 5000 µM
[43]
  TGI: > 5000 µM
[44]
  TGI: > 5000 µM
[45]
  TGI: > 5000 µM
[46]
  TGI: > 5000 µM
[47]
  TGI: > 5000 µM
[48]
  TGI: > 5000 µM
[49]
  TGI: > 5000 µM
[50]
  TGI: > 5000 µM
[51]
  TGI: > 5000 µM
[52]
  TGI: > 5000 µM
[53]
  TGI: > 5000 µM
[54]
  TGI: > 5000 µM

## Nc1nc2c(ncn2CCCC(c2ccccc2)P(=O)(O)O)c(=O)[nH]1 (centres undefined)
[2]
  TGI: > 100 µM
[3]
  TGI: > 100 µM
[4]
  TGI: > 100 µM
[5]
  TGI: > 100 µM
[6]
  TGI: > 100 µM
[7]
  TGI: > 100 µM
[8]
  TGI: > 100 µM
[9]
  TGI: > 100 µM
[11]
  TGI: > 100 µM
[12]
  TGI: > 100 µM
[13]
  TGI: > 100 µM
[14]
  TGI: > 100 µM
[55]
  TGI: > 100 µM
[15]
  TGI: > 100 µM
[16]
  TGI: > 100 µM
[17]
  TGI: > 100 µM
[18]
  TGI: > 100 µM
[57]
  TGI: > 100 µM
[19]
  TGI: > 100 µM
[20]
  TGI: > 100 µM
[21]
  TGI: > 100 µM
[22]
  TGI: > 100 µM
[23]
  TGI: > 100 µM
[25]
  TGI: > 100 µM
[26]
  TGI: > 100 µM
[27]
  TGI: > 100 µM
[28]
  TGI: > 100 µM
[29]
  TGI: > 100 µM
[30]
  TGI: > 100 µM
[31]
  TGI: > 100 µM
[32]
  TGI: > 100 µM
[33]
  TGI: > 100 µM
[34]
  TGI: > 100 µM
[35]
  TGI: > 100 µM
[36]
  TGI: > 100 µM
[37]
  TGI: > 100 µM
[38]
  TGI: > 100 µM
[58]
  TGI: > 100 µM
[39]
  TGI: > 100 µM
[41]
  TGI: > 100 µM
[42]
  TGI: > 100 µM
[43]
  TGI: > 100 µM
[44]
  TGI: > 100 µM
[45]
  TGI: > 100 µM
[46]
  TGI: > 100 µM
[48]
  TGI: > 100 µM
[49]
  TGI: > 100 µM
[50]
  TGI: > 100 µM
[51]
  TGI: > 100 µM
[52]
  TGI: > 100 µM
[53]
  TGI: > 100 µM
[54]
  TGI: > 100 µM

## CC(C)OC(=O)C1Cc2c([nH]c3ccccc23)C(c2ccccc2)N1 (centres undefined)
[1]
  TGI: > 100 µM
[2]
  TGI: > 100 µM
[3]
  TGI: > 100 µM
[4]
  TGI: > 100 µM
[5]
  TGI: > 100 µM
[6]
  TGI: > 100 µM
[7]
  TGI: > 100 µM
[8]
  TGI: > 100 µM
[9]
  TGI: > 100 µM
[10]
  TGI: > 100 µM
[11]
  TGI: > 100 µM
[12]
  TGI: > 100 µM
[13]
  TGI: > 100 µM
[14]
  TGI: > 100 µM
[55]
  TGI: > 100 µM
[15]
  TGI: > 100 µM
[56]
  TGI: > 100 µM
[16]
  TGI: > 100 µM
[17]
  TGI: > 100 µM
[18]
  TGI: > 100 µM
[19]
  TGI: 73.4 µM
[20]
  TGI: > 100 µM
[21]
  TGI: > 100 µM
[22]
  TGI: > 100 µM
[23]
  TGI: > 100 µM
[24]
  TGI: > 100 µM
[25]
  TGI: 69.9 µM
[26]
  TGI: > 100 µM
[27]
  TGI: > 100 µM
[28]
  TGI: > 100 µM
[29]
  TGI: > 100 µM
[30]
  TGI: > 100 µM
[31]
  TGI: > 100 µM
[32]
  TGI: > 100 µM
[33]
  TGI: > 100 µM
[34]
  TGI: 73.9 µM
[35]
  TGI: > 100 µM
[36]
  TGI: > 100 µM
[37]
  TGI: 86.5 µM
[38]
  TGI: > 100 µM
[58]
  TGI: 41.2 µM
[39]
  TGI: > 100 µM
[40]
  TGI: 98.3 µM
[41]
  TGI: > 100 µM
[42]
  TGI: > 100 µM
[43]
  TGI: > 100 µM
[44]
  TGI: > 100 µM
[45]
  TGI: > 100 µM
[46]
  TGI: > 100 µM
[48]
  TGI: > 100 µM
[49]
  TGI: > 100 µM
[50]
  TGI: > 100 µM
[51]
  TGI: > 100 µM
[52]
  TGI: > 100 µM
[53]
  TGI: > 100 µM
[54]
  TGI: > 100 µM
